Experimental data taken from patent US10213427B2 (Incyte Corporation, priority 2010, dated 2019).

Biological target: FGFR3 enzyme (Millipore) (Homo sapiens (Human), UniProt P22607)
Assay: FGFR3 Enzymatic Assay
Type: biochemical
Conditions: FRET peptide phosphorylation, 140 μM ATP
Procedure: The inhibitor potency of compounds of the invention was measured in an enzyme assay that measures peptide phosphorylation using FRET measurements to detect product formation. Inhibitors were serially diluted in DMSO and a volume of 0.5 μL was transferred to the wells of a 384-well plate. A 10 μL volume of FGFR3 enzyme (Millipore) diluted in assay buffer (50 mM HEPES, 10 mM MgCl2, 1 mM EGTA, 0.01% Tween-20, 5 mM DTT, pH 7.5) was added to the plate and pre-incubated for 5-10 minutes. Appropriate controls (enzyme blank and enzyme with no inhibitor) were included on the plate. […] The plate was incubated at 25° C. for 1 hr. […] The plate was allowed to equilibrate for ˜1 hr before scanning the wells on a PheraStar plate reader.
GraphPad prism3 was used to analyze the data. The IC50 values were derived by fitting the data to the equation for a sigmoidal dose-response with a variable slope. Y=Bottom+(Top−Bottom)/(1+10^((Log IC50−X)*HillSlope)) where X is the logarithm of concentration and Y is the response.

Sequence of FGFR3 enzyme (Millipore) (P22607 23-806): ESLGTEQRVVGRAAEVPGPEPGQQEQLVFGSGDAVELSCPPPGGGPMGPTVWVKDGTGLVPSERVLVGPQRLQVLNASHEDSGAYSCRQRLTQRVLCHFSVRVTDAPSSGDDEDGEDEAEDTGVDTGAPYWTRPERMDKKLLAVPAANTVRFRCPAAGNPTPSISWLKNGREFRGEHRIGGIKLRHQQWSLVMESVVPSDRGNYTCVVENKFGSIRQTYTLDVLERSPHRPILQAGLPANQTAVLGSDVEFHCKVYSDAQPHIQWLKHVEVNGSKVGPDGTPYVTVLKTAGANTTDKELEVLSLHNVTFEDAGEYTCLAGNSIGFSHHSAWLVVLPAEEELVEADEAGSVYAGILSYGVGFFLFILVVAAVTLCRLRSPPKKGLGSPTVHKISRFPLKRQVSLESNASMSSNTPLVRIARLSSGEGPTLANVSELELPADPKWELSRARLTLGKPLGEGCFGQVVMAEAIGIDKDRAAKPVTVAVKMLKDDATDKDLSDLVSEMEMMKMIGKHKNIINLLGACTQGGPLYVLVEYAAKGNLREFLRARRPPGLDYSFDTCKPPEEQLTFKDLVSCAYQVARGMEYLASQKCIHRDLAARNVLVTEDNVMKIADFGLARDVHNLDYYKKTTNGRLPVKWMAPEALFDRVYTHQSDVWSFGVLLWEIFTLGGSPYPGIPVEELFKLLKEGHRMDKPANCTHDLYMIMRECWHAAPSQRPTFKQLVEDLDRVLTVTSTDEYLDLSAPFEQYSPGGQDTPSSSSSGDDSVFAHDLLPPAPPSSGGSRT

IC50 [nM]	Structure (SMILES)
< 10	Cn1ccc(S(=O)(=O)N2CCC(n3cc(-c4cnn5c(-c6cccc(NC(=O)NCC(F)(F)F)c6)cnc5c4)cn3)CC2)n1 [Example 31, N-{3-[7-(1-{1-[(1-methyl-1H-pyrazol-3-yl)sulfonyl]piperidin-4-yl}-1H-pyrazol-4-yl)imidazo[1,2-b]pyridazin-3-yl]phenyl}-N′-(2,2,2-trifluoroethyl)urea]
< 10	O=C(NCC(F)(F)F)Nc1cccc(-c2cnc3cc(-c4cnn(C5CCN(C(=O)CC6CCCC6)CC5)c4)cnn23)c1 [Example 35, N-[3-(7-{1-[1-(cyclopentylacetyl)piperidin-4-yl]-1H-pyrazol-4-yl}imidazo[1,2-b]pyridazin-3-yl)phenyl]-N′-(2,2,2-trifluoroethyl)urea]
< 10	O=C(NCC(F)(F)F)Nc1cccc(-c2cnc3cc(-c4cnn(C5CCN(C(=O)N6CCCC6)CC5)c4)cnn23)c1 [Example 36, N-[3-(7-{1-[1-(Pyrrolidin-1-ylcarbonyl)piperidin-4-yl]-1H-pyrazol-4-yl}imidazo[1,2-b]pyridazin-3-yl)phenyl]-N′-(2,2,2-trifluoroethyl)urea]
< 10	O=C(NCC(F)(F)F)Nc1cccc(-c2cnc3cc(-c4cnn(C5CCN(C(=O)NCC6CCCO6)CC5)c4)cnn23)c1 (stereo not shown) [Example 40, N-(tetrahydrofuran-2-ylmethyl)-4-(4-{3-[3-({[(2,2,2-trifluoroethyl)amino]carbonyl}amino)phenyl]imidazo[1,2-b]pyridazin-7-yl}-1H-pyrazol-1-yl)piperidine-1-carboxamide]
< 10	O=C(NCC(F)(F)F)Nc1cccc(-c2cnc3cc(-c4cnn(C5CCN(C(=O)C6(O)CC6)CC5)c4)cnn23)c1 [Example 43, N-{3-[7-(1-{1-[(1-hydroxycyclopropyl)carbonyl]piperidin-4-yl}-1H-pyrazol-4-yl)imidazo[1,2-b]pyridazin-3-yl]phenyl}-N′-(2,2,2-trifluoroethyl)urea]
< 10	N#CC1(C(=O)N2CCC(n3cc(-c4cnn5c(-c6cccc(NC(=O)NCC(F)(F)F)c6)cnc5c4)cn3)CC2)CC1 [Example 45, N-{3-[7-(1-{1-[(1-Cyanocyclopropyl)carbonyl]piperidin-4-yl}-1H-pyrazol-4-yl)imidazo[1,2-b]pyridazin-3-yl]phenyl}-N′-(2,2,2-trifluoroethyl)urea]
< 10	O=C(NCC(F)(F)F)Nc1cccc(-c2cnc3cc(-c4cnn(C5CCN(C(=O)C(O)C(F)(F)F)CC5)c4)cnn23)c1 (stereo not shown) [Example 49, N-(2,2,2-trifluoroethyl)-N′-[3-(7-{1-[1-(3,3,3-trifluoro-2-hydroxypropanoyl)piperidin-4-yl]-1H-pyrazol-4-yl}imidazo[1,2-b]pyridazin-3-yl)phenyl]urea]
< 10	O=C(NCC(F)(F)F)Nc1cccc(-c2cnc3cc(-c4cnn(C5CCN(C(=O)CC6CCCO6)CC5)c4)cnn23)c1 (stereo not shown) [Example 50, N-[3-(7-{1-[1-(tetrahydrofuran-2-ylacetyl)piperidin-4-yl]-1H-pyrazol-4-yl}imidazo[1,2-b]pyridazin-3-yl)phenyl]-N′-(2,2,2-trifluoroethyl)urea]
< 10	O=C(NCC(F)(F)F)Nc1cccc(-c2cnc3cc(-c4ccc(N5CCN(C(=O)N6CCCC6)CC5)nc4)cnn23)c1 [Example 53, N-[3-(7-{6-[4-(pyrrolidin-1-ylcarbonyl)piperazin-1-yl]pyridin-3-yl}imidazo[1,2-b]pyridazin-3-yl)phenyl]-N′-(2,2,2-trifluoroethyl)urea]
< 10	CC(C(=O)N(C)C)n1cc(-c2cnn3c(-c4cccc(NC(=O)NCC(F)(F)F)c4)cnc3c2)cn1 (stereo not shown) [Example 56, N,N-Dimethyl-2-(4-{3-[3-({[(2,2,2-trifluoroethyl)amino]carbonyl}amino)phenyl]imidazo[1,2-b]pyridazin-7-yl}-1H-pyrazol-1-yl)propanamide]

Continued, molecule first:

Structure (SMILES)	IC50 [nM]
COCC(=O)N1CCC(n2cc(-c3cnn4c(-c5cccc(NC(=O)NCC(F)(F)F)c5)cnc4c3)cn2)CC1 [Example 30, N-[3-(7-{1-[1-(Methoxyacetyl)piperidin-4-yl]-1H-pyrazol-4-yl}imidazo[1,2-b]pyridazin-3-yl)phenyl]-N′-(2,2,2-trifluoroethyl)urea]	< 10
Cn1cc(C(=O)N2CCC(n3cc(-c4cnn5c(-c6cccc(NC(=O)NCC(F)(F)F)c6)cnc5c4)cn3)CC2)cn1 [Example 32, N-{3-[7-(1-{1-[(1-Methyl-1H-pyrazol-4-yl)carbonyl]piperidin-4-yl}-1H-pyrazol-4-yl)imidazo[1,2-b]pyridazin-3-yl]phenyl}-N′-(2,2,2-trifluoroethyl)urea]	< 10
CN(C)CC(=O)N1CCC(n2cc(-c3cnn4c(-c5cccc(NC(=O)NCC(F)(F)F)c5)cnc4c3)cn2)CC1 [Example 33, N-{3-[7-(1-{1-[(Dimethylamino)acetyl]piperidin-4-yl}-1H-pyrazol-4-yl)imidazo[1,2-b]pyridazin-3-yl]phenyl}-N′-(2,2,2-trifluoroethyl)urea]	< 10
O=C(NCC(F)(F)F)Nc1cccc(-c2cnc3cc(-c4cnn(C5CCN(S(=O)(=O)Cc6ccccc6)CC5)c4)cnn23)c1 [Example 34, N-[3-(7-{1-[1-(Benzylsulfonyl)piperidin-4-yl]-1H-pyrazol-4-yl}imidazo[1,2-b]pyridazin-3-yl)phenyl]-N′-(2,2,2-trifluoroethyl)urea]	< 10
O=C(NCC(F)(F)F)Nc1cccc(-c2cnc3cc(-c4cnn(C5CCN(C(=O)N6CCOCC6)CC5)c4)cnn23)c1 [Example 37, N-[3-(7-{1-[1-(morpholin-4-ylcarbonyl)piperidin-4-yl]-1H-pyrazol-4-yl}imidazo[1,2-b]pyridazin-3-yl)phenyl]-N′-(2,2,2-trifluoroethyl)urea]	< 10
O=C(NCC(F)(F)F)Nc1cccc(-c2cnc3cc(-c4cnn(C5CCN(C(=O)Nc6cccnc6)CC5)c4)cnn23)c1 [Example 38, N-Pyridin-3-yl-4-(4-{3-[3-({[(2,2,2-trifluoroethyl)amino]carbonyl}amino)phenyl]imidazo[1,2-b]pyridazin-7-yl}-1H-pyrazol-1-yl)piperidine-1-carboxamide]	< 10
O=C(NCC(F)(F)F)Nc1cccc(-c2cnc3cc(-c4cnn(C5CCN(C(=O)NCc6ccccc6)CC5)c4)cnn23)c1 [Example 39, N-Benzyl-4-(4-{3-[3-({[(2,2,2-trifluoroethyl)amino]carbonyl}amino)phenyl]imidazo[1,2-b]pyridazin-7-yl}-1H-pyrazol-1-yl)piperidine-1-carboxamide]	< 10
O=C(NCC(F)(F)F)Nc1cccc(-c2cnc3cc(-c4cnn(C5CCN(C(=O)CC6CC6)CC5)c4)cnn23)c1 [Example 41, N-[3-(7-{1-[1-(Cyclopropylacetyl)piperidin-4-yl]-1H-pyrazol-4-yl}imidazo[1,2-b]pyridazin-3-yl)phenyl]-N′-(2,2,2-trifluoroethyl)urea]	< 10
CC1(C(=O)N2CCC(n3cc(-c4cnn5c(-c6cccc(NC(=O)NCC(F)(F)F)c6)cnc5c4)cn3)CC2)CC1 [Example 42, N-{3-[7-(1-{1-[(1-Methylcyclopropyl)carbonyl]piperidin-4-yl}-1H-pyrazol-4-yl)imidazo[1,2-b]pyridazin-3-yl]phenyl}-N′-(2,2,2-trifluoroethyl)urea]	< 10
N#CCC(=O)N1CCC(n2cc(-c3cnn4c(-c5cccc(NC(=O)NCC(F)(F)F)c5)cnc4c3)cn2)CC1 [Example 44, N-[3-(7-{1-[1-(Cyanoacetyl)piperidin-4-yl]-1H-pyrazol-4-yl}imidazo[1,2-b]pyridazin-3-yl)phenyl]-N′-(2,2,2-trifluoroethyl)urea]	< 10
O=C(NCC(F)(F)F)Nc1cccc(-c2cnc3cc(-c4cnn(C5CCN(C(=O)CCC6CC6)CC5)c4)cnn23)c1 [Example 46, N-[3-(7-{1-[1-(3-Cyclopropylpropanoyl)piperidin-4-yl]-1H-pyrazol-4-yl}imidazo[1,2-b]pyridazin-3-yl)phenyl]-N′-(2,2,2-trifluoroethyl)urea]	< 10
O=C(NCC(F)(F)F)Nc1cccc(-c2cnc3cc(-c4cnn(C5CCN(C(=O)C6CC(O)C6)CC5)c4)cnn23)c1 (stereo not shown) [Example 47, N-{3-[7-(1-{1-[(3-hydroxycyclobutyl)carbonyl]piperidin-4-yl}-1H-pyrazol-4-yl)imidazo[1,2-b]pyridazin-3-yl]phenyl}-N′-(2,2,2-trifluoroethyl)urea]	< 10
O=C(NCC(F)(F)F)Nc1cccc(-c2cnc3cc(-c4cnn(C5CCN(C(=O)C6CCOC6)CC5)c4)cnn23)c1 (stereo not shown) [Example 48, N-[3-(7-{1-[1-(tetrahydrofuran-3-ylcarbonyl)piperidin-4-yl]-1H-pyrazol-4-yl}imidazo[1,2-b]pyridazin-3-yl)phenyl]-N′-(2,2,2-trifluoroethyl)urea]	< 10
CC(C(=O)NC1CC1)n1cc(-c2cnn3c(-c4cccc(NC(=O)NCC(F)(F)F)c4)cnc3c2)cn1 (stereo not shown) [Example 54, N-Cyclopropyl-2-(4-{3-[3-({[(2,2,2-trifluoroethyl)amino]carbonyl}amino)phenyl]imidazo[1,2-b]pyridazin-7-yl}-1H-pyrazol-1-yl)propanamide]	< 10
CNC(=O)C(C)n1cc(-c2cnn3c(-c4cccc(NC(=O)NCC(F)(F)F)c4)cnc3c2)cn1 (stereo not shown) [Example 55, N-Methyl-2-(4-{3-[3-({[(2,2,2-trifluoroethyl)amino]carbonyl}amino)phenyl]imidazo[1,2-b]pyridazin-7-yl}-1H-pyrazol-1-yl)propanamide]	< 10
